Laboratory results taken from patent publication US20170226139A1, “CRYSTALLINE SALTS OF (Z)-O-OCTADEC-9-EN-1-YL O,O-DIHYDROGEN PHOSPHOROTHIOATE” (priority 2013, published 2017).
Like-named read-outs stand apart in the source and are kept apart here.

Assays:
[1] = biological target: T1, LPA5 (Homo sapiens, UniProt Q9H1C0); test: Calcium-mobilization assay (FURA-2), LPA5 in B103 neuroblastoma cells; assay type: cell-based
T1 construct: expressed in transfected cells; host or cells: B103 rat neuroblastoma
Protocol: (§1) We investigated structure-activity relationships across species, LPAR subtypes and between Rx100 and two known process impurities encountered in manufacture: Rx103 (‘E’ isomer) and Rx200 (oleyl phosphate and impurity, which can be an Rx100 degradant along with oleyl alcohol). Rx100, Rx103, Rx200 and native LPA were investigated at different human LPAR subtypes. In addition, the activity of these compounds was evaluated at LPA2 receptors from the rhesus, rat and mouse species. Human LPA1/2/3 subtypes were transfected into mouse embryonic fibroblasts (MEF) or rat hepatoma cells (RH7777)—both of which are normally non-responsive or null to LPA. Human LPA4 was transfected into Chinese hamster ovary (CHO) cells and LPA5 into the B103 neuroblastoma cell line. […] The B103 rat neuroblastoma cell line is endogenously nonresponsive to LPA but expresses heterologous LPA5 receptors well. […] LPAR activation elicits a G-protein-mediated transient rise in intracellular calcium level that is proportional to the concentration of LPA applied. The intracellular calcium level was quantified by the calcium-selective fluorescent indicator FURA-2 (e.g., increased intracellular calcium surge=increased fluorescence).

[2] = test system: Control CHO; test: Calcium-mobilization assay, untransfected Control CHO cells; assay type: cell-based, Chinese hamster
Protocol: as §1

[3] = biological target: LPA2 receptors from the rat (Rattus norvegicus, UniProt A0ABK0LT65); test: Calcium-mobilization assay (FURA-2), rat LPA2; assay type: cell-based
Protocol: as §1

[4] = biological target: T2, Human LPA1 (Homo sapiens, UniProt Q92633); test: Calcium-mobilization assay (FURA-2), human LPA1 transfected cells; assay type: cell-based; conditions: for EC50 / Emax (% of LPA): mean
T2 construct: expressed in transfected cells; host or cells: mouse embryonic fibroblasts (MEF)
Protocol: as §1

[5] = biological target: T3, Human LPA3 (Homo sapiens, UniProt Q9UBY5); test: Calcium-mobilization assay (FURA-2), human LPA3 transfected cells; assay type: cell-based; conditions: for EC50 / Emax (% of LPA): mean
T3 construct: expressed in transfected cells; host or cells: mouse embryonic fibroblasts (MEF) or rat hepatoma RH7777
T3 sequence (Q9UBY5 1-353): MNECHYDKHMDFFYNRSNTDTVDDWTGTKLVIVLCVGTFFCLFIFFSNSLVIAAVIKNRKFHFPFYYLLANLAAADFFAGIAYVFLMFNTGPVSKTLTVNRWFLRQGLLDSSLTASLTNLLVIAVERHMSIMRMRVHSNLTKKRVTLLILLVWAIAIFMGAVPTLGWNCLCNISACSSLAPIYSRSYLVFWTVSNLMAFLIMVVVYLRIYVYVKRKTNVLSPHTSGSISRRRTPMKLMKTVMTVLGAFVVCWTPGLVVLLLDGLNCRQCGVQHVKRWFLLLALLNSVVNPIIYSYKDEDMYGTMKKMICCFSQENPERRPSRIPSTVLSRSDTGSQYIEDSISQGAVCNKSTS
Protocol: as §1

[6] = biological target: Human LPA2 (Homo sapiens, UniProt Q9HBW0); test: Calcium-mobilization assay (FURA-2), human LPA2 transfected cells; assay type: cell-based; parameters: expressed in transfected cells; host or cells: mouse embryonic fibroblasts (MEF) or rat hepatoma RH7777
Protocol: as §1

[7] = biological target: T4, LPA2 receptors from the mouse (Mus musculus, UniProt Q9JL06); test: Calcium-mobilization assay (FURA-2), mouse LPA2; assay type: cell-based
T4 construct: expressed in transfected cells
Protocol: as §1

[8] = biological target: LPA2 receptors from the rhesus (Macaca mulatta, UniProt I2CXV3); test: Calcium-mobilization assay (FURA-2), rhesus LPA2; assay type: cell-based
Protocol: as §1

[9] = biological target: T5, Human LPA4 (Homo sapiens, UniProt Q99677); test: Calcium-mobilization assay (FURA-2), human LPA4 in CHO cells; assay type: cell-based
T5 construct: expressed in transfected cells; host or cells: CHO
Protocol: as §1

[10] = test system: lysophosphatidic acid receptor (LPAR); test: Calcium-mobilization assay, overall statements for all species and LPAR subtypes tested; assay type: cell-based
Description: The compound was medicinally designed as an LPA analog with the goal of decreasing the otherwise rapid metabolism of LPA itself. […] These receptors are ubiquitous by tissue and in those eukaryotes investigated. […] Thus, the mechanism of drug action for GI-ARS protection is activation of the transmembrane G protein-coupled lysophosphatidic acid receptor (LPAR) and, more specifically, the LPAR2 GPCR subtype. The primary pharmacodynamics is that LPAR2 activation leads to a cascade of intracellular events that switch cells from an apoptotic to a repair/regenerative pathway.
as §1
Oleyl alcohol is, of course, a common component of many non-toxic ingested or dermally applied substances.

[11] = RH7777, read-out: Emax (% of LPA)

T2 sequence (Q92633 whole entry): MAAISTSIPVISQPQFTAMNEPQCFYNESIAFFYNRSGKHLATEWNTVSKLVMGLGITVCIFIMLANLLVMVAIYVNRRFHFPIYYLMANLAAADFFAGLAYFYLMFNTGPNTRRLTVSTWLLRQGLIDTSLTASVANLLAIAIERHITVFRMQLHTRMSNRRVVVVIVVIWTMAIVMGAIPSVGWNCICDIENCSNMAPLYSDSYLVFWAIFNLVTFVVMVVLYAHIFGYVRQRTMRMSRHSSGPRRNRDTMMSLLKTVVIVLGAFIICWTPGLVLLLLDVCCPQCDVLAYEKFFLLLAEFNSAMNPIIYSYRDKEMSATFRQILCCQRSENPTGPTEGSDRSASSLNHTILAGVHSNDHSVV
Chain of Human LPA2 (Q9HBW0 whole entry): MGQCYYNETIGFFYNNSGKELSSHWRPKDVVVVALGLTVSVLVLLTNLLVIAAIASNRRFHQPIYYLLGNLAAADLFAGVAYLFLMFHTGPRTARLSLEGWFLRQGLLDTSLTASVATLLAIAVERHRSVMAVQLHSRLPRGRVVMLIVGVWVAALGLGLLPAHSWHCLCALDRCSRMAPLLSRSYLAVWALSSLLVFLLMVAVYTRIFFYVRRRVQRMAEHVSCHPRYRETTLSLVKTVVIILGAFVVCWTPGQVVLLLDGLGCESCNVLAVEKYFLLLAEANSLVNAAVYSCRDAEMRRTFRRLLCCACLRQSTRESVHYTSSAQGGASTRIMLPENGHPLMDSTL
T4 sequence (Q9JL06 whole entry): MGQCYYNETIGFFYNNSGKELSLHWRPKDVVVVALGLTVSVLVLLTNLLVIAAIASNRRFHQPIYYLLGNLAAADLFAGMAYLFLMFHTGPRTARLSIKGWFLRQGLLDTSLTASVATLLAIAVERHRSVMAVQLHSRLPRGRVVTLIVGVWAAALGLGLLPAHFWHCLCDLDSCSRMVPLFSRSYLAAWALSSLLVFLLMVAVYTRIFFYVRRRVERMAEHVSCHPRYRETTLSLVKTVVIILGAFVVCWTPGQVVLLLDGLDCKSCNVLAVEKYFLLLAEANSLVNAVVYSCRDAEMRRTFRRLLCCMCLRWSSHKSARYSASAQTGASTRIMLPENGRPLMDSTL
T1 sequence (Q9H1C0 whole entry): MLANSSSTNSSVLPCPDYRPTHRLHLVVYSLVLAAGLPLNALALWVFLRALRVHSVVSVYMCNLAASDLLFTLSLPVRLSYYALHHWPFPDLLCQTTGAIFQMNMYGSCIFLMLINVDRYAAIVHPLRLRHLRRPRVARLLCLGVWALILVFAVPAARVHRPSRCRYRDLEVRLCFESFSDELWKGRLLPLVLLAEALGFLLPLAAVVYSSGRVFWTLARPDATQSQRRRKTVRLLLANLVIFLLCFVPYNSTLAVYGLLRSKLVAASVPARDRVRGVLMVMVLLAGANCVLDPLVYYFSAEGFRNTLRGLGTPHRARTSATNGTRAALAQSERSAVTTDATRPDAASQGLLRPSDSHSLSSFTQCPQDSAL
Chain of LPA2 receptors from the rat (A0ABK0LT65 1-348): as the sequence (Q9JL06 whole entry) above, with A153V, A189V, Y211F, M310T, S316H, R321H, A324S, Q327R, R341H counted along it
T5 sequence (Q99677 whole entry): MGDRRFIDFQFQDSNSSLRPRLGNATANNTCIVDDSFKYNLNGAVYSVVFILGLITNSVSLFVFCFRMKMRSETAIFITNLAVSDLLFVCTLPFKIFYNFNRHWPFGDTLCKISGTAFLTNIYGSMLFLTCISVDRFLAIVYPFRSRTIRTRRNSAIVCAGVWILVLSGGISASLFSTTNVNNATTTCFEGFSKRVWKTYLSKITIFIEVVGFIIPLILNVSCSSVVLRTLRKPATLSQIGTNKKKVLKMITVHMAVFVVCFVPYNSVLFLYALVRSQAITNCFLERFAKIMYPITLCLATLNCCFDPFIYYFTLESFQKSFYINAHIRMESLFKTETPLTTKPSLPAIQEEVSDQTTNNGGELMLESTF
Chain of LPA2 receptors from the rhesus (I2CXV3 1-351): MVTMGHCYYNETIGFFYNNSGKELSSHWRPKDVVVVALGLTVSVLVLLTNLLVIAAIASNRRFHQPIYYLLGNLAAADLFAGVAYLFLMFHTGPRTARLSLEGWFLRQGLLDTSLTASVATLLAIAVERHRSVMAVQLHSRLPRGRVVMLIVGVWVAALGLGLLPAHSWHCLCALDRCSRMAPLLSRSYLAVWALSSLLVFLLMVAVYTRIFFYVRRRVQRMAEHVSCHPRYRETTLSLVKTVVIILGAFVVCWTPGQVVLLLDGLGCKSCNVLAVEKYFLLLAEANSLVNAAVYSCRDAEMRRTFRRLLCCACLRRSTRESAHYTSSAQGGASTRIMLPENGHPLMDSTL

CCCCCCCC/C=C/CCCCCCCCOP(O)(O)=S [Rx103]
EC50 [1]: 83 nM
Emax ([1]; B103, read-out: Emax (% of LPA)): 103%
EC50 ([2]; Cricetulus griseus, CHO): > 5000 nM
Emax ([2]; Cricetulus griseus, CHO, read-out: Emax (% of LPA)): 12%
EC50 [3]: 133 nM
Emax ([3]; read-out: Emax (% of LPA)): 87.6%
EC50 ([4]; EC50 [nM], LPA1 DKO MEF, human): 367 nM
EC50 ([4]; EC50 [nM], LPA1 RH7777, human): 1710 nM
Emax [4, 11]: 75%
Emax ([4]; read-out: Emax (% of LPA)): 90%
EC50 ([5]; EC50 [nM], LPA3 DKO MEF, human): 61 nM
EC50 ([5]; EC50 [nM], LPA3 RH7777, human): 74 nM
Emax [5, 11]: 77%
Emax ([5]; read-out: Emax (% of LPA)): 100%
EC50 [6]: 241 nM
Emax ([6]; read-out: Emax (% of LPA)): 70%
EC50 [7]: 355 nM
Emax ([7]; read-out: Emax (% of LPA)): 100%
EC50 [8]: 133 nM
Emax ([8]; read-out: Emax (% of LPA)): 90%
EC50 [9]: > 5000 nM
Emax ([9]; CHO, read-out: Emax (% of LPA)): 88%
LPAR activation [10]: has activity but has a uniformly reduced EC50 and Emax

CCCCCCCC/C=C\CCCCCCCCOP(=O)(O)O [Rx200, oleyl phosphate]
Emax (% of LPA) ([1]; LPA5 B103, human, mean): 100 % of LPA
EC50 ([1]; LPA5 B103, human, mean, read-out: EC50): 167 nM
Emax (% of LPA) ([2]; Control CHO (untransfected; endogenously expresses LPA1)): 12%
EC50 ([2]; Control CHO (untransfected; endogenously expresses LPA1), read-out: EC50): 965 nM
EC50 [nM] ([3]; LPA2 DKO MEF, rat, mean): No
Emax (% of LPA) ([3]; LPA2 DKO MEF, rat, mean): No
Emax (% of LPA) ([4]; LPA1 DKO MEF, human): 53 % of LPA
EC50 ([4]; LPA1 DKO MEF, human, read-out: EC50): 1360 nM
Emax (% of LPA) ([4]; LPA1 RH7777, human): 83 % of LPA
EC50 ([4]; LPA1 RH7777, human, read-out: EC50): 328 nM
Emax (% of LPA) ([5]; LPA3 DKO MEF, human): 34 % of LPA
EC50 ([5]; LPA3 DKO MEF, human, read-out: EC50): > 5000 nM
Emax (% of LPA) ([5]; LPA3 RH7777, human): 61 % of LPA
EC50 ([5]; LPA3 RH7777, human, read-out: EC50): 747 nM
EC50 [nM] ([6]; LPA2 DKO MEF, human, mean): No
Emax (% of LPA) ([6]; LPA2 DKO MEF, human, mean): No
EC50 [nM] ([7]; LPA2 DKO MEF, mouse, mean): No
Emax (% of LPA) ([7]; LPA2 DKO MEF, mouse, mean): No
EC50 [nM] ([8]; LPA2 DKO MEF, rhesus, mean): No
Emax (% of LPA) ([8]; LPA2 DKO MEF, rhesus, mean): No
Emax (% of LPA) ([9]; LPA4 CHO, human, mean): 70 % of LPA
EC50 ([9]; LPA4 CHO, human, mean, read-out: EC50): 737 nM
LPAR activation [10]: virtually inactive
